In ChEMBL document CHEMBL4354836, “Heterotrimeric G Proteins as Therapeutic Targets in Drug Discovery” (J Med Chem, 2020):
pIC50: −log10 of the molar value. Bridge positions count the residues as written; N and C are the ends. Square brackets hold non-standard residues; d marks the D form. Peptide text beside a SMILES is read from it. Leu(3R-O(AcLeu(3R-OH))) = CC(=O)N[C@H](C(=O)O[C@H](C(C)C)[C@H](N)C(=O)O)[C@H](O)C(C)C; NMeT = CN[C@H](C(=O)O)[C@@H](C)O; dPhLac = O=C(O)[C@H](O)Cc1ccccc1; NMeA = CN[C@@H](C)C(=O)O; NMeDha = C=C(NC)C(=O)O

Experiments:
[1] = molecular target: Guanine nucleotide-binding protein G(I)/G(S)/G(T) subunit beta-1/gamma-2 (Homo sapiens, UniProt P59768+P62873); assay: Inhibition of G-protein beta1gamma2 (unknown origin) by flow cytometry; type: protein-complex assay
Chain of Guanine nucleotide-binding protein G(I)/G(S)/G(T) subunit beta-1/gamma-2 (P59768 2-71 limits assumed): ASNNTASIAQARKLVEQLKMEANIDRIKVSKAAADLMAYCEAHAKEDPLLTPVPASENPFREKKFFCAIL
Chain of Guanine nucleotide-binding protein G(I)/G(S)/G(T) subunit beta-1/gamma-2 (P62873 2-340 limits assumed): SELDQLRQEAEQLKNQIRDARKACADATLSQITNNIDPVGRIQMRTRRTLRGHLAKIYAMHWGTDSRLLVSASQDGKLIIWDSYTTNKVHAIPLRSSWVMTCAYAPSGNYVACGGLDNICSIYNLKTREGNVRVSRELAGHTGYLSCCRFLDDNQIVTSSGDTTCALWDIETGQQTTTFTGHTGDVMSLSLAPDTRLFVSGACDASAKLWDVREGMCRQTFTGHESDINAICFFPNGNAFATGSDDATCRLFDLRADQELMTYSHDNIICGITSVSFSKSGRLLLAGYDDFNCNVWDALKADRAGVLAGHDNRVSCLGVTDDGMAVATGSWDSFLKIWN

[2] = molecular target: T1, GNAQ/GNA11 (Homo sapiens, UniProt P50148+P29992); assay: Inhibition of G-alphaq/11 in human platelet rich plasma assessed as inhibition of ADP-mediated calcium ion mobilization
T1 sequence (P50148 whole entry): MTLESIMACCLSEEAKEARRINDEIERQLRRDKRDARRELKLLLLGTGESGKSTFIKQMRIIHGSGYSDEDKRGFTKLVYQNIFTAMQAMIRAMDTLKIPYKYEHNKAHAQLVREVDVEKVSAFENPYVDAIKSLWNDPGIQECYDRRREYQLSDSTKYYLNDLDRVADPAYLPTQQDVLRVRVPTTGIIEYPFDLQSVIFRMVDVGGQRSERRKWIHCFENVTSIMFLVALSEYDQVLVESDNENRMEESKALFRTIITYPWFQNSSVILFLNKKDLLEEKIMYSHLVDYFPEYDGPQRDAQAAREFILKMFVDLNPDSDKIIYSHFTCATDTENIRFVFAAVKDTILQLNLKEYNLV
T1 sequence (P29992 whole entry): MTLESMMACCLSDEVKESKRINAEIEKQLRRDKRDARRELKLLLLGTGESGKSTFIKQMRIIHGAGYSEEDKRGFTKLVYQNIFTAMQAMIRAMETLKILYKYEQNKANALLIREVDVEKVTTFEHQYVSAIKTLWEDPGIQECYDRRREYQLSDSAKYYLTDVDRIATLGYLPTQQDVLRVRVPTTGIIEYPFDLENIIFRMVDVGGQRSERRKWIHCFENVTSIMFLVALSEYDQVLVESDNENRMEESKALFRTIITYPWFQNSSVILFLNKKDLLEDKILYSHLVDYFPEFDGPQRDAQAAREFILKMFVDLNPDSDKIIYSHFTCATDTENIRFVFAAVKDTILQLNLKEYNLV

[3] = molecular target: T1, GNAQ/GNA11; assay: Inhibition of G-alphaq/11 in human platelet rich plasma assessed as inhibition of ADP-mediated platelet aggregation
[4] = Inhibition of recombinant G-alpha subunit (unknown origin) assessed as inhibition of GDP release; set-up: species or system Homo sapiens

For `O=C(O)C1CCCCC1c1c2ccc(=O)cc-2oc2cc(O)ccc12` (configuration not stated), the pIC50 [1] was under 3.52.
For `O=C(O)C1CC23C(Cl)C(Cl)=C(Cl)C(Cl)C2(CC1c1c2ccc(=O)c(O)c-2oc2c(O)c(O)ccc12)C3(Cl)Cl` (configuration not stated), the pIC50 [1] was 6.60.
In the case of `O=C1OC2(c3ccccc31)c1ccc(O)c(O)c1Oc1c2ccc(O)c1O`, the pIC50 [1] was 6.70.
`O=C(O)C1CCCCC1c1c2ccc(=O)c(O)c-2oc2c(O)c(O)ccc12` (configuration not stated) showed a pIC50 [1] of 6.70.
In the case of `C=C1C(=O)N[C@@H](C)C(=O)N(C)[C@@H](C)C(=O)N[C@@H]([C@H](OC(=O)[C@@H](NC(C)=O)[C@H](O)C(C)C)C(C)C)C(=O)N(C)[C@@H]([C@@H](C)OC)C(=O)O[C@H](C)[C@H](NC(C)=O)C(=O)O[C@H](Cc2ccccc2)C(=O)N1C` (Ac-T[dPhLac][NMeDha]A[NMeA][Leu(3R-O(AcLeu(3R-OH)))][NMeT](Me); ester 1-C), the pIC50 [2] was 6.00 to 7.00 and the pIC50 [3] was 6.00 to 7.00.
`Cc1ccc(C(=O)Nc2ccc(S(=O)(=O)O)c3cc(S(=O)(=O)O)cc(S(=O)(=O)O)c23)cc1NC(=O)c1cccc(NC(=O)Nc2cccc(C(=O)Nc3cc(C(=O)Nc4ccc(S(=O)(=O)O)c5cc(S(=O)(=O)O)cc(S(=O)(=O)O)c45)ccc3C)c2)c1` [SURAMIN] gave a pIC50 [4] of 6.62.
